Several values for one entry are separate records, joined by “and”; a condition that tells them apart may be missing. Identical values can stand only once. Inconclusive results and toxic doses are left out. How the source made its calls: active means survival T/C of 150% or more; inactive means T/C below 125% in these data.
System: P388 leukemia ip, CD2F1 mice, survival T/C
Assay: NCI In Vivo Anticancer Drug Screen. Data for tumor model P388 Leukemia (intraperitoneal) in CD2F1 (CDF1) mice
Settings: endpoint: median survival time, higher = longer survival
How it was run: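 Mice carrying the transplanted tumor received test compound or vehicle. Survival was recorded in each group, and the value is the treated-group measurement divided by that of the vehicle-treated control group.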

[1] = dose: 50.0 mg/kg/injection, schedule: Q01DX009 (ip), vehicle: Klucel (hydroxypropylcellulose) (HPC)
[2] = dose: 100.0 mg/kg/injection, schedule: Q01DX009 (ip), vehicle: Klucel (hydroxypropylcellulose) (HPC)
[3] = dose: 200.0 mg/kg/injection, schedule: Q01DX009 (ip), vehicle: Klucel (hydroxypropylcellulose) (HPC)
[4] = dose: 12.5 mg/kg/injection, schedule: Q01DX009 (ip), vehicle: saline with Tween-80
[5] = dose: 25.0 mg/kg/injection, schedule: Q01DX009 (ip), vehicle: saline with Tween-80
[6] = dose: 50.0 mg/kg/injection, schedule: Q01DX009 (ip), vehicle: saline with Tween-80

Measured: T/C

O=P(O)(O)O
inactive: dose: 60.0 mg/kg/injection, schedule: Q01DX005 (ip), vehicle: saline 97 % of control | dose: 120.0 mg/kg/injection, schedule: Q01DX005 (ip), vehicle: saline 97 % of control | dose: 240.0 mg/kg/injection, schedule: Q01DX005 (ip), vehicle: saline 90 % of control

CC(N)C(O)C(C)C(=O)O (configuration not stated)
inactive: dose: 12.5 mg/kg/injection, schedule: Q01DX009 (ip), vehicle: water 111 % of control | dose: 25.0 mg/kg/injection, schedule: Q01DX009 (ip), vehicle: water 107 % of control | dose: 50.0 mg/kg/injection, schedule: Q01DX009 (ip), vehicle: water 107 % of control | dose: 100.0 mg/kg/injection, schedule: Q01DX009 (ip), vehicle: water 98 % of control | dose: 200.0 mg/kg/injection, schedule: Q01DX009 (ip), vehicle: water 102 % of control

Cc1cnc(Sc2ncccc2[N+](=O)[O-])[nH]c1=O
inactive: dose: 50.0 mg/kg/injection, schedule: Q01DX005 (ip), vehicle: Klucel (hydroxypropylcellulose) (HPC) 107 % of control | dose: 100.0 mg/kg/injection, schedule: Q01DX005 (ip), vehicle: Klucel (hydroxypropylcellulose) (HPC) 93 % of control | dose: 200.0 mg/kg/injection, schedule: Q01DX005 (ip), vehicle: Klucel (hydroxypropylcellulose) (HPC) 97 % of control

NNS(=O)(=O)c1cc(Cl)c(Cl)cc1Cl
inactive: [1] 94 % of control | [2] 98 % of control | [3] 95 % of control

c1nc(SSc2ncnc3nc[nH]c23)c2[nH]cnc2n1
inactive: [4] 113 % of control | [5] 118 % of control | [6] 100 % of control

CCCCCCCCCCCCSC(SCCCCCCCCCCCC)SCCCCCCCCCCCC
inactive: [4] 97 % of control | [5] 92 % of control | [6] 99 % of control | dose: 100.0 mg/kg/injection, schedule: Q01DX009 (ip), vehicle: saline with Tween-80 106 % of control

COc1cccc2c1C(=O)c1c(O)c3c(c(O)c1C2=O)C[C@@](O)(C(C)=O)C[C@@H]3OC1CC(N=C(N)CCSSCCC(N)=NC2CC(O[C@H]3C[C@](O)(C(C)=O)Cc4c(O)c5c(c(O)c43)C(=O)c3c(OC)cccc3C5=O)OC(C)C2O)C(O)C(C)O1 (some centres not stated)
inactive: dose: 3.12 mg/kg/injection, schedule: Q04DX003 (ip), vehicle: distilled water + Tween-80 115 % of control | dose: 6.25 mg/kg/injection, schedule: Q04DX003 (ip), vehicle: distilled water + Tween-80 108 % of control and 122 % of control | dose: 12.5 mg/kg/injection, schedule: Q04DX003 (ip), vehicle: distilled water + Tween-80 118 % of control | dose: 25.0 mg/kg/injection, schedule: Q04DX003 (ip), vehicle: distilled water + Tween-80 116 % of control | dose: 50.0 mg/kg/injection, schedule: Q04DX003 (ip), vehicle: distilled water + Tween-80 105 % of control | dose: 100.0 mg/kg/injection, schedule: Q04DX003 (ip), vehicle: distilled water + Tween-80 121 % of control

O=C1C(C(=Nc2ccc3ccccc3c2)c2ccccc2)=C(O)c2ccccc21
inactive: dose: 25.0 mg/kg/injection, schedule: Q04DX002 (ip), vehicle: saline with Tween-80 100 % of control | dose: 50.0 mg/kg/injection, schedule: Q04DX002 (ip), vehicle: saline with Tween-80 102 % of control | dose: 100.0 mg/kg/injection, schedule: Q04DX002 (ip), vehicle: saline with Tween-80 89 % of control

CCn1c(=O)c(C(C)=O)cc2c(=O)c3c(ccc4ccccc43)oc21
inactive: dose: 50.0 mg/kg/injection, schedule: Q01DX005 (ip), vehicle: saline with Tween-80 104 % of control | dose: 100.0 mg/kg/injection, schedule: Q01DX005 (ip), vehicle: saline with Tween-80 93 % of control | dose: 200.0 mg/kg/injection, schedule: Q01DX005 (ip), vehicle: saline with Tween-80 91 % of control

CCOC(=O)Nc1c(C)cc(C)cc1C
inactive: dose: 25.0 mg/kg/injection, schedule: Q01DX009 (ip), vehicle: Klucel (hydroxypropylcellulose) (HPC) 99 % of control | [1] 100 % of control | [2] 94 % of control | [3] 100 % of control

ClC1=C(Cl)C2(Cl)C3C4CC(C5OC45)C3N1C2(Cl)Cl (configuration not stated)
inactive: dose: 100.0 mg/kg/injection, schedule: Q01DX001 (ip), vehicle: saline with Tween-80 109 % of control | dose: 200.0 mg/kg/injection, schedule: Q01DX001 (ip), vehicle: saline with Tween-80 103 % of control

CCn1c(=O)oc2ccc(Br)cc21
inactive: dose: 100.0 mg/kg/injection, schedule: Q04DX002 (ip), vehicle: Klucel (hydroxypropylcellulose) (HPC) 100 % of control | dose: 200.0 mg/kg/injection, schedule: Q04DX002 (ip), vehicle: Klucel (hydroxypropylcellulose) (HPC) 98 % of control | dose: 400.0 mg/kg/injection, schedule: Q04DX002 (ip), vehicle: Klucel (hydroxypropylcellulose) (HPC) 104 % of control

Reference: PubChem BioAssay AID330 (DTP/NCI, 2004)
